This passage reports IC50 results from patent US10723705B2, “Heterocyclic compounds and uses thereof” (Incyte Corporation, priority 2015, dated 2020).

This assay has as its target Human recombinant Histone Deacetylase 8 (HDAC8) (Homo sapiens (Human), UniProt Q9BY41). The assay is described as follows: HDAC8 Enzymatic Assay (HDAC-Glo I/II luminescence). Type of assay: biochemical. The gist of the method: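 Human recombinant HDAC8 (1.5 nM final) preincubated with compound for 30 min, then reacted with 50 μM Boc-GAK(Ac)-aminoluciferin plus trypsin-containing developer for 15 min at room temperature, pH 8.0, 0.5% DMSO. Luminescence read-out; IC50 from percent control activity versus log concentration.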

The mark [1] stands for this setting: class symbols, Table 14, read-out: HDAC8 IC50.

Like-named read-outs stand apart in the source and are kept apart here.

Sequence of Human recombinant Histone Deacetylase 8 (HDAC8) (Q9BY41 whole entry): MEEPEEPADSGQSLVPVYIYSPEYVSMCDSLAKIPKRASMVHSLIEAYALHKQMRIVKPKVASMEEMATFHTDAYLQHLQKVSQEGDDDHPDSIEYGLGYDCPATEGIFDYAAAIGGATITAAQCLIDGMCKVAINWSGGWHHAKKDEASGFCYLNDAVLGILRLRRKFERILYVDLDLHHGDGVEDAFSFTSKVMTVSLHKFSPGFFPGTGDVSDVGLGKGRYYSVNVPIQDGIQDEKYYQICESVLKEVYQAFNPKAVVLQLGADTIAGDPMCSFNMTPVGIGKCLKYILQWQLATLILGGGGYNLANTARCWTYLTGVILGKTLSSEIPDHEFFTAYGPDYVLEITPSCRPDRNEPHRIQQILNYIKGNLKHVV

One may read the IC50 as the point on the concentration scale where inhibition reaches its midpoint. As to `COC(=O)C(Cc1ccccc1)n1cc2cccc(C(=O)N3CCC(F)(F)CC3)c2n1` (centres unmarked) [Compound I-0172, methyl 2-(7-(4,4-difluoropiperidine-1-carbonyl)-2H-indazol-2-yl)-3-phenylpropanoate], the IC50 under setting [1] lay within 200 to 500 nM.
On the same count and under the same terms, then `O=C(NO)C(Cc1ccccc1)n1ncc2c(-c3cncnc3)nccc21` (centres unmarked) [Compound I-0071, N-hydroxy-3-phenyl-2-(4-(pyrimidin-5-yl)-1H-pyrazolo[4,3-c]pyridin-1-yl)propanamide], with 50 to 200 nM.
The same measure, in the same setting: under `Cn1nccc1-c1ccc2nn(C(Cc3ccccc3)C(=O)NO)cc2c1` (centres unmarked) [Compound I-0034, N-hydroxy-2-(5-(1-methyl-1H-pyrazol-5-yl)-2H-indazol-2-yl)-3-phenylpropanamide] stands 200 to 500 nM.
`O=C(NO)C(Cc1ccccc1)n1ncc2cc(-c3cncnc3)cnc21` (centres unmarked) [Compound I-0121, N-hydroxy-3-phenyl-2-(5-(pyrimidin-5-yl)-1H-pyrazolo[3,4-b]pyridin-1-yl)propanamide]: under setting [1], the IC50 lay within 200 to 500 nM.
The same measure, in the same setting: under `N/C(=N\O)c1cccc(-c2ccc3c(cnn3C(Cc3ccccc3)C(=O)NO)c2)c1` (centres unmarked) [Compound I-0107, (Z)-N-hydroxy-2-(5-(3-(N′-hydroxy-carbamimid-oyl)phenyl)-1H-indazol-1-yl)-3-phenylpropanamide] stands 50 to 200 nM; under `Cc1ccc2nn(C(Cc3ccccc3)C(=O)NO)c(C#CC3CC3)c2c1` (centres unmarked) [Compound I-0032, 2-(3-(cyclopropylethynyl)-5-methyl-2H-indazol-2-yl)-N-hydroxy-3-phenylpropanamide], at most 50 nM; under `O=C(NO)C(Cc1ccccc1)n1cc2cc(-c3ccccc3)ccc2n1` (centres unmarked) [Compound I-0036, N-hydroxy-3-phenyl-2-(5-phenyl-2H-indazol-2-yl)propanamide], above 500 nM.
Consider `Cn1nc(C(Cc2ccccc2)C(=O)NO)c2ccc(-c3cncnc3)cc21` (centres unmarked) [Compound I-0204, N-hydroxy-2-(1-methyl-6-pyrimidin-5-yl-1H-indazol-3-yl)-3-phenylpropanamide], for which the half-inhibitory concentration (IC50) (HDAC8, read-out: IC50) stood at 84 nM and the IC50 under setting [1] is 50 to 200 nM.
Regarding `O=C(NO)C(Cc1ccccc1)n1ncc2ccc(-c3cnn(CCN4CCOCC4)c3)cc21` (centres unmarked) [Compound I-0143, N-hydroxy-2-(6-(1-(2-morpholinoethyl)-1H-pyrazol-4-yl)-1H-indazol-1-yl)-3-phenylpropanamide], the IC50 under setting [1] was above 500 nM.
Turning to `O=C(NO)C(Cc1ccccc1)n1nc2c(-c3cncnc3)nccc2c1C#CC1CC1` (centres unmarked) [Compound I-0207, 2-(3-(cyclopropylethynyl)-7-(pyrimidin-5-yl)-2H-pyrazolo[3,4-c]pyridin-2-yl)-N-hydroxy-3-phenylpropanamide], the IC50 under setting [1] is at most 50 nM.
On the same count and under the same terms, under `Cn1cc(-c2ccc3c(cnn3C(Cc3ccccc3)C(=O)NO)c2)cn1` (centres unmarked) [Compound I-0105, N-hydroxy-2-(5-(1-methyl-1H-pyrazol-4-yl)-1H-indazol-1-yl)-3-phenylpropanamide] stands 50 to 200 nM; under `O=C(NO)C(Cc1ccccc1)n1cc2cncc(C#CC3CC3)c2n1` (centres unmarked) [Compound I-0053, 2-(7-(cyclopropylethynyl)-2H-pyrazolo[4,3-c]pyridin-2-yl)-N-hydroxy-3-phenylpropanamide], 200 to 500 nM.
On the same count and under the same terms, under `NC(=O)c1ccc(-c2cccc3c(C#CC4CC4)n(C(Cc4ccccc4)C(=O)NO)nc23)cc1` (centres unmarked) [Compound I-0138, 4-(3-(cyclopropylethynyl)-2-(1-(hydroxyamino)-1-oxo-3-phenylpropan-2-yl)-2H-indazol-7-yl)benzamide] stands at most 50 nM; under `O=C(NO)C(Cc1ccccc1)n1cc2cccc(CN3CCC4(CC3)COC4)c2n1` (centres unmarked) [Compound I-0186, 2-(7-(2-oxa-7-azaspiro[3.5]nonan-7-ylmethyl)-2H-indazol-2-yl)-N-hydroxy-3-phenylpropanamide], above 500 nM.
On the same count and under the same terms, then `O=C(NO)C(Cc1ccccc1)n1nc2c(-c3ccncc3)cccc2c1C#CC1CC1` (centres unmarked) [Compound I-0154, 2-(3-(cyclopropylethynyl)-7-(pyridin-4-yl)-2H-indazol-2-yl)-N-hydroxy-3-phenylpropanamide], with at most 50 nM; and `O=C(NO)C(Cc1ccccc1)n1cc2cc(-c3cncnc3)ccc2n1` (centres unmarked) [Compound I-0051, N-hydroxy-3-phenyl-2-(5-(pyrimidin-5-yl)-2H-indazol-2-yl)propanamide], with 200 to 500 nM; and `O=C(NO)C(Cc1ccccc1)n1ncc2cnccc21` (centres unmarked) [Compound I-0042, N-hydroxy-3-phenyl-2-(1H-pyrazolo[4,3-c]pyridin-1-yl)propanamide], with 200 to 500 nM.
Take `O=C(NO)C(Cc1ccccc1)c1cnc2cc(-c3cncnc3)ccn12` (centres unmarked) [Compound I-0112, N-hydroxy-3-phenyl-2-(7-(pyrimidin-5-yl)imidazo[1,2-a]pyridin-3-yl)propanamide]: the half-inhibitory concentration (IC50) under setting [1] was 50 to 200 nM.
Still for that read-out and setting: then `O=C(NO)C(Cc1ccccc1)n1nc2c(C3CC3)cccc2c1C#CC1CC1` (centres unmarked) [Compound I-0160, 2-(7-cyclopropyl-3-(cyclopropylethynyl)-2H-indazol-2-yl)-N-hydroxy-3-phenylpropanamide], with at most 50 nM.
Take `O=C(NO)C(Cc1ccccc1)n1cc2ccc(-c3cccnc3)cc2n1` (centres unmarked) [Compound I-0008, N-hydroxy-3-phenyl-2-(6-(pyridin-3-yl)-2H-indazol-2-yl)propanamide]: the IC50 under setting [1] lay within 200 to 500 nM.
Still for that read-out and setting: under `CN1CCN(c2ccc(-c3cccc4nn(C(Cc5ccccc5)C(=O)NO)cc34)cc2)CC1` (centres unmarked) [Compound I-0148, N-hydroxy-2-(4-(4-(4-methylpiperazin-1-yl)phenyl)-2H-indazol-2-yl)-3-phenylpropanamide] stands 50 to 200 nM.
The same measure, in the same setting: under `NC(=O)c1ccc(-c2ccc3nn(C(Cc4ccccc4)C(=O)NO)c(C#CC4CC4)c3c2)cc1` (centres unmarked) [Compound I-0026, 4-(3-(cyclopropylethynyl)-2-(1-(hydroxyamino)-1-oxo-3-phenylpropan-2-yl)-2H-indazol-5-yl)benzamide] stands at most 50 nM; under `CC(=O)N1CCN(c2cncc(-c3ccc4cnn(C(Cc5ccccc5)C(=O)NO)c4c3)c2)CC1` (centres unmarked) [Compound I-0144, 2-(6-(5-(4-acetylpiperazin-1-yl)pyridin-3-yl)-1H-indazol-1-yl)-N-hydroxy-3-phenylpropanamide], 50 to 200 nM; under `Cc1cccn2c(C(Cc3ccccc3)C(=O)NO)cnc12` (centres unmarked) [Compound I-0171, N-hydroxy-2-(8-methylimidazo[1,2-a]pyridin-3-yl)-3-phenylpropanamide], 200 to 500 nM.
Still for that read-out and setting: then `NC(=O)c1cccc(-c2cnc3c(cnn3C(Cc3ccccc3)C(=O)NO)c2)c1` (centres unmarked) [Compound I-0131, 3-(1-(1-(hydroxyamino)-1-oxo-3-phenylpropan-2-yl)-1H-pyrazolo[3,4-b]pyridin-5-yl)benzamide], with 200 to 500 nM.
As for `O=C(NO)C(Cc1ccccc1)n1cc2cc(Br)cnc2n1` (centres unmarked) [Compound I-0123, 2-(5-bromo-2H-pyrazolo[3,4-b]pyridin-2-yl)-N-hydroxy-3-phenylpropanamide], the 50% inhibitory concentration (IC50) under setting [1] lay within 200 to 500 nM.
Same read-out and setting: then `NC(=O)c1cccc(-c2cccn3c(C(Cc4ccccc4)C(=O)NO)cnc23)c1` (centres unmarked) [Compound I-0169, 3-(3-(1-(hydroxyamino)-1-oxo-3-phenylpropan-2-yl)imidazo[1,2-a]pyridin-8-yl)benzamide], with 200 to 500 nM; and `O=C(NO)C(Cc1ccccc1)c1cnc2c(-c3ccncc3)cccn12` (centres unmarked) [Compound I-0162, N-hydroxy-3-phenyl-2-(8-(pyridin-4-yl)imidazo[1,2-a]pyridin-3-yl)propanamide], with 200 to 500 nM.
`O=C(NO)C(Cc1ccccc1)n1nc2c(Cl)cccc2c1I` (centres unmarked) [Compound I-0135, 2-(7-chloro-3-iodo-2H-indazol-2-yl)-N-hydroxy-3-phenylpropanamide]: the IC50 under setting [1] was 200 to 500 nM.
Turning to `O=C(NO)C(Cc1ccccc1)n1cc2cc(Br)ccc2n1` (centres unmarked) [Compound I-0024, 2-(5-bromo-2H-indazol-2-yl)-N-hydroxy-3-phenylpropanamide], the half-inhibitory concentration (IC50) under setting [1] was above 500 nM.
As to `NC(=O)c1ccc(-c2nccc3c(C#CC4CC4)n(C(Cc4ccccc4)C(=O)NO)nc23)cc1` (centres unmarked) [Compound I-0140, 4-(3-(cyclopropylethynyl)-2-(1-(hydroxyamino)-1-oxo-3-phenylpropan-2-yl)-2H-pyrazolo[3,4-c]pyridin-7-yl)benzamide], under setting [1], the half-inhibitory concentration (IC50) is at most 50 nM.
Still for that read-out and setting: then `Cn1cc(-c2cc3cnn(C(Cc4ccccc4)C(=O)NO)c3cn2)cn1` (centres unmarked) [Compound I-0091, N-hydroxy-2-(5-(1-methyl-1H-pyrazol-4-yl)-1H-pyrazolo[3,4-c]pyridin-1-yl)-3-phenylpropanamide], with above 500 nM; and `COc1ccc(-c2ccc3nn(C(Cc4ccccc4)C(=O)NO)c(C#CC4CC4)c3c2)cn1` (centres unmarked) [Compound I-0046, 2-(3-(cyclopropylethynyl)-5-(6-methoxypyridin-3-yl)-2H-indazol-2-yl)-N-hydroxy-3-phenylpropanamide], with 200 to 500 nM; and `O=C(NO)C(Cc1ccccc1)n1ncc2nc(-c3ccncc3)ccc21` (centres unmarked) [Compound I-0073, N-hydroxy-3-phenyl-2-(5-(pyridin-4-yl)-1H-pyrazolo[4,3-b]pyridin-1-yl)propanamide], with 200 to 500 nM.
The same measure, in the same setting: then `O=C(NO)C(Cc1ccccc1)n1cc2c(-c3ccncc3)cccc2n1` (centres unmarked) [Compound I-0058, N-hydroxy-3-phenyl-2-(4-(pyridin-4-yl)-2H-indazol-2-yl)propanamide], with 200 to 500 nM; and `CN(C)C(=O)c1ccc(-c2cccc3cn(C(Cc4ccccc4)C(=O)NO)nc23)cc1` (centres unmarked) [Compound I-0110, 4-(2-(1-(hydroxyamino)-1-oxo-3-phenylpropan-2-yl)-2H-indazol-7-yl)-N,N-dimethylbenzamide], with at most 50 nM; and `Cc1n[nH]cc1-c1cccc2c(C#CC3CC3)n(C(Cc3ccccc3)C(=O)NO)nc12` (centres unmarked) [Compound I-0166, 2-(3-(cyclopropylethynyl)-7-(3-methyl-1H-pyrazol-4-yl)-2H-indazol-2-yl)-N-hydroxy-3-phenylpropanamide], with at most 50 nM.
